Results published in US10865203B2, “Ligands selective to alpha 6 subunit-containing GABAA receptors and their methods of use” (UWM Research Foundation, Inc., priority 2015, dated 2020).
Entries after “also recorded” stand apart in the source; their conditions may differ.

Legend:
[1] = tested on: METH-impaired PPI in C57/B6 mice; assay: PPI test, methamphetamine-impaired prepulse inhibition; format: in vivo, mouse; conditions: for rescue of METH-impaired PPI: mice, compound 10 mg/kg i.p. 15 min before METH 2 mg/kg i.p.
Description: All animal experiments conducted at NTU were approved by the Institutional Animal Care and Use Committee of College of Medicine, National Taiwan University. C57/B6 (8-10 weeks) mice were used for the PPI test and Wistar rats (8-9 weeks) were used in the migraine model. Animals were housed in an animal room with a 12-h light/12-h dark cycle and free access to food and water.
The PPI test was conducted with a PPI apparatus (SR-LAB, San Diego Instruments, San Diego, Calif.) consisting of a startle chamber equipped with various programming acoustic stimulations. After acclimation, the mouse was gently placed in the startle chamber for a 4 min acclimation period with a background noise of 65 dB, which continued throughout the whole PPI test session. One PPI test session consisted of 4 types of startle trials, including the trial with the startle pulse (115 dB) alone (PULSEALONE; 115 dB, 20 ms), two trials with the startle pulse paired with 71 and 77 dB prepulses, respectively (PREPULSE+PULSE; 71 dB+115 dB and 77 dB+115 dB), and the trial without stimulus (NOSTIM; background 65 dB only). A test session started and ended, respectively, with four NOSTIM trials and four PULSEALONE trials. In between, each of the four types of trials was presented 14 times randomly, that is, 56 trials were given in a test session. The intertrial interval was given randomly from 5 to 20 s. In the PREPULSE+PULSE trial, a 71 or 77 dB prepulse was given 120 ms before the 115 dBpulse. The magnitude of PPI (PPI %) was determined, after summarizing the startle responses in PULSEALONE and PREPULSE+PULSE trials, according to the equation (PULSEALON−PREPULSE+PULSE)/PULSEALONE×100%. The tested compound or vehicle was given to the animal for 15 min, followed by methamphetamine (2 mg/kg). The PPI test was conducted 10 min after injection of methamphetamine. Data were expressed as the mean±S.E.M. Statistical comparisons among groups were analyzed by ANOVA with Tukey post hoc test, and differences between groups were analyzed by Student's t-test. Two-way ANOVA with Bonferroni's post hoc test was used to analyze differences in the time courses of locomotor activity among groups. Differences were considered significant if P<0.05.
Methamphetamine and apomorphine were dissolved in normal saline for i.p. And s.c. Injections, respectively. Tested compounds and haloperidol, when given by i.p. Injection, were dissolved in a vehicle containing 20% dmso, 20% Cremophor® el (polyoxyethylene castor, sigma-aldrich) and 60% normal saline. Furosemide was dissolved (20 nmole/μL) in dimethylsulfoxide for intra-cerebellar microinjection the i.p. or s.c. Injection volume was 10 mL/kg.

α6β3γ2 receptor = target: T1, α6β3γ2 receptor (Rattus norvegicus, UniProt P30191+P63079); assay: Electrophysiology in Xenopus oocytes, modulation of GABA currents; format: cell-based; conditions: for Emax: EC3-6 GABA currents, read-out: maximum efficacy, enhancement of the reference current; for selectivity for α6β3γ2 over other αxβ3γ2 receptors: modulation of GABA EC3 currents
T1 construct: expressed in transfected cells; host or cells: Xenopus laevis oocytes injected with subunit mRNA (3:1:5)
Description: Mature female Xenopus laevis (Nasco, Fort Atkinson, Wis., USA) were anaesthetized in a bath of ice-cold 0.17% Tricain (Ethyl-m-aminobenzoat, Sigma-Aldrich, St. Louis, Mo., USA) before decapitation and transfer of the frog's ovary to ND96 medium (96 mM NaCl, 2 mM KCl, 1 mM MgCl2, 5 mM HEPES; pH 7.5). Following incubation in 1 mg/mL collagenase (Sigma-Aldrich, St. Louis, Mo., USA) for 30 min, stage 5 to 6 oocytes were singled out of the ovary and defolliculated using a platinum wire loop. Oocytes were stored and incubated at 18° C. in NDE medium (96 mM NaCl, 2 mM KCl, 1 mM MgCl2, 5 mM HEPES, 1.8 mM CaCl2; pH 7.5) that was supplemented with 100 U per mL-1 penicillin, 100 μg per mL-1 streptomycin and 2.5 mM pyruvate. Oocytes were injected with an aqueous solution of mRNA. A total of 2.5 ng of mRNA per oocyte was injected. Subunit ratio was 1:1:5 for αxβγ2 (x=1, 2, 3, 5) and 3:1:5 for α4/6β3γ2 and αβδ receptors. Injected oocytes were incubated for at least 36 h before electrophysiological recordings. Oocytes were placed on a nylon-grid in a bath of NDE medium. For current measurements, the oocytes were impaled with two microelectrodes (2-3MΩ), which were filled with 2 M KCl. The oocytes were constantly washed by a flow of 6 mL per min-1 NDE that could be switched to NDE containing GABA and/or drugs. Drugs were diluted into NDE from DMSO solutions resulting in a final concentration of 0.1% DMSO. […] To test for modulation of GABA induced currents by compounds, a GABA concentration that was titrated to trigger 3-5% of the respective maximum GABA-elicited current of the individual oocyte (EC3-5) was applied to the cell together with various concentrations of tested compounds. All recordings were performed at room temperature at a holding potential of −60 mV using a Warner OC-725C TEV (Warner Instrument, Hamden, Conn., USA) or a Dagan CA-1B Oocyte Clamp or a Dagan TEV-200A TEV (Dagan Corporation, Mineapolis, Minn., USA). Data were digitized using a Digidata 1322A or 1550 data acquisition system (Axon Instruments, Union City, Calif., USA), recorded using Clampex 10.5 software (Molecular Devices, Sunnyvale, Calif., USA), and analyzed using Clampfit 10.5 and GraphPad Prism 6.0 (La Jolla, Calif., USA) software. Concentration-response data were fitted using the Hill equation. Data are given as mean±SEM from at least three oocytes of two batches.
For selected test compounds full dose response curves were recorded in α1-6β3γ2 receptors. For selected compounds, dose response curves in additional receptor subtypes (α1, 4, 6β3δ, α6β1, 2γ2, α1-6β3) were also obtained. For a wider panel of compounds, a two point screening pharmacology was obtained at 1 and 10 μM compound concentrations.

[2] = Pharmacokinetic study in rats, plasma and brain; conditions: for total concentration in rat brain tissue: nanoemulsion or suspension; for half-life: male, Wistar, rat, ip, 10 mg/kg
Description: Five pharmacokinetic studies have been performed; four in male Wistar rats and one in male Swiss mice. […] In a separate in vitro experiment, the rapid equilibrium dialysis assay was used to determine free fraction of DK-I-56-1 in rat plasma and brain tissue.

T1 sequence (P30191 20-453): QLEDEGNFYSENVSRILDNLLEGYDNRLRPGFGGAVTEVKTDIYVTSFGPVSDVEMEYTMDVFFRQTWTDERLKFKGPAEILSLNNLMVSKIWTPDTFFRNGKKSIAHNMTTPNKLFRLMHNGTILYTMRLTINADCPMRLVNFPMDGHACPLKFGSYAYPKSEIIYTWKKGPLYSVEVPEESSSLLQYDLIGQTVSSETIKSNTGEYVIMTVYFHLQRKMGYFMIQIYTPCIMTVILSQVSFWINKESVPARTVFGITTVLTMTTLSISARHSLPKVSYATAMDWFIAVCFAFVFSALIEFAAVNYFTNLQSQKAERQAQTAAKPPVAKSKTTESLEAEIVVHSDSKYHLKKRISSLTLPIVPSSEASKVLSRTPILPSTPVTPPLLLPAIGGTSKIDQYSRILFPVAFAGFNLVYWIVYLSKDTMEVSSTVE
T1 sequence (P63079 26-473): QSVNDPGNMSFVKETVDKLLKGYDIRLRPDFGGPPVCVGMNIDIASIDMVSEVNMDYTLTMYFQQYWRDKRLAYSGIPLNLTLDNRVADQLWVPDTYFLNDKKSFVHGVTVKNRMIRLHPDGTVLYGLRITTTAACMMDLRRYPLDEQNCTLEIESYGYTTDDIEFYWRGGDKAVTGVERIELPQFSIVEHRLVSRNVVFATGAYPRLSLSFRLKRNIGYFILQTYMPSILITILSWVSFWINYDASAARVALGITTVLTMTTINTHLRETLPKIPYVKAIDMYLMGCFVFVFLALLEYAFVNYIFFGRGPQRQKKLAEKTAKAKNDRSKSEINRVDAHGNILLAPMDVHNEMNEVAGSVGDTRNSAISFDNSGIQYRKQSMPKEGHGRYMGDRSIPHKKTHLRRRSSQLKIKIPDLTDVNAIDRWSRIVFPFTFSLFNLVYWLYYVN
T1 sequence (P18508 39-466 partner): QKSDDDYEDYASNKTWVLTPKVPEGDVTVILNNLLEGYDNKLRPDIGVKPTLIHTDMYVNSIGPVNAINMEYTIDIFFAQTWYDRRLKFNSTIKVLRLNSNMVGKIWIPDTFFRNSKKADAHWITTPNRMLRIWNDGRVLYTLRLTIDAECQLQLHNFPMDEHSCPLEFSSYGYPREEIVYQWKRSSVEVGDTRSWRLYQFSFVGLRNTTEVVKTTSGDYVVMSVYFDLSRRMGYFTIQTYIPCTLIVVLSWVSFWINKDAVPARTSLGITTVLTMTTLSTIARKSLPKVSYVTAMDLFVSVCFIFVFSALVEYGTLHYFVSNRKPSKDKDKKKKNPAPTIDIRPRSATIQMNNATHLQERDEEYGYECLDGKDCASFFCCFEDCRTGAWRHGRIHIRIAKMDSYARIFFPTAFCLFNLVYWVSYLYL

| Structure (SMILES) | rescue of METH-impaired PPI [1] | Emax (α6β3γ2 receptor) [%] | selectivity for α6β3γ2 over other αxβ3γ2 receptors (α6β3γ2 receptor) | time of maximum concentration in rat brain tissue ([2]; 10 mg/kg i.p.) [h] | total concentration in rat brain tissue ([2]; 10 mg/kg i.p.) | free concentrations in rat brain tissue ([2]; 10 mg/kg i.p., estimated from free fraction) [nM] | half-life ([2]; brain) [min] | effect of intra-cerebellar furosemide on the rescue of PPI ([1]; furosemide 10 nmol intra-cerebellar microinjection) | rescue of METH-impaired PPI ([1]; listed as C6) | rescue of METH-impaired PPI ([1]; listed as compound 6) | selectivity for α6β3γ2 over other αxβ3γ2 receptors (α6β3γ2 receptor; listed as compound 6) | maximum efficacy compared to the lead compounds (α6β3γ2 receptor) | half-life ([2]; in vivo) [min] |
| --- | --- | --- | --- | --- | --- | --- | --- | --- | --- | --- | --- | --- | --- |
| COc1cccc(-n2nc3c4cc(Cl)ccc4[nH]cc-3c2=O)c1 [LAU 159, 8-Chloro-2-(3-methoxyphenyl)-2,5-dihydro-3H-pyrazolo[4,3-c]quinolin-3-one] | effective; also recorded: comparable rescue effect as Compound 6 | ~400 | preferentially modulate GABA currents of α6β3γ2 receptors; also recorded: pronounced selectivity for the α6β3γ2 receptor; also recorded: (efficacy-) selective for α6β3γ2 receptors |  |  |  |  |  |  |  |  |  |  |
| [2H]C([2H])([2H])Oc1ccc(-n2nc3c4ccc(OC)cc4[nH]cc-3c2=O)cc1 [DK-I-56-1, 7-Methoxy-2-(4-methoxy-d3-phenyl)-2,5-dihydro-3H-pyrazolo[4,3-c]quinolin-3-one] | effective |  |  | 3 | micromolar concentrations | ≥ 100 | ~240 |  |  |  |  |  |  |
| COc1ccc(-n2nc3c4ccc(OC)cc4[nH]cc-3c2=O)cc1 [Compound 6, 7-Methoxy-2-(4-methoxyphenyl)-2,5-dihydro-3H-pyrazolo[4,3-c]quinolin-3-one] | effectively rescued | 400 to 1000 | preferentially modulate GABA currents of α6β3γ2 receptors; also recorded: pronounced selectivity for the α6β3γ2 receptor |  | high submicromolar concentrations |  |  | prevented | significantly rescued | effective; also recorded: significantly rescued | selectively modulates α6-containing receptors; also recorded: (efficacy-) selective for α6β3γ2 receptors |  |  |
| [2H]C([2H])([2H])Oc1ccc2c3nn(-c4ccc(OC)nc4)c(=O)c-3c[nH]c2c1 [DK-I-86-1, 7-Methoxy-d3-2-(6-methoxypyridin-3-yl)-2,5-dihydro-3H-pyrazolo[4,3-c]quinolin-3-one] |  |  | preferentially modulates α6β3γ2 receptors; also recorded: selectivity was very good |  | high submicromolar concentrations |  |  |  |  |  |  | lower | ~540 |
| COc1ccc(-n2nc3c4ccc(Br)cc4[nH]cc-3c2=O)cc1 [LAU 463, 7-Bromo-2-(4-methoxyphenyl)-2,5-dihydro-3H-pyrazolo[4,3-c]quinolin-3-one] | effective; also recorded: comparable rescue effect as Compound 6 | 400 to 1000 | preferentially modulate GABA currents of α6β3γ2 receptors; also recorded: pronounced selectivity for the α6β3γ2 receptor; also recorded: (efficacy-) selective for α6β3γ2 receptors |  |  |  |  |  |  |  |  |  |  |
